Columns and labels:
[1] = test system: histone H2B-HaloTag fusion; experiment: Halo-protein specificity (Specificity Factor), single molecule spot detection; assay type: cell-based; conditions: ratio of slope (spots vs dye concentration, 200 nM to 1 nM, 45 minutes) relative to PA-JF549; WT and H2B-HaloTag U2OS cells
Excerpt: Images were collected every 10 msec for 5 seconds per field of view and pulses of ascending intensity 405 nm light (between 0 and 12 mW at the coverslip) were used to photoactivate dye molecules.
For each dye compound, a linear regression was used to determine the relationship between the concentration of dye compound and the number of fluorescence spots detected on the microscope, where in WT cells the ideal dye would have no correlation between compound concentration and number of slots measured. The Specificity Factor was calculated as the ratio of the slope of the compound in question relative to the slope calculated for PA-JF549 and is shown in Table 3 below.

[2] = test system: Wild-type (WT) U2OS cells; experiment: Reduction in nonspecific labeling of WT cells (number of tracks vs PA-JF549); assay type: cell-based; conditions: 100 nM, 1 hr, ratio with PA-JF549 in the numerator
Procedure: Using the methods described in Tables 4a and 4b above, labelling specificity of the compound of Examples 1-28 was measured and compared to PA-JF549. U2OS cells wild type or expressing ER-HaloTag fusion were incubated with PA-JF549 or Examples 1-28 for 1 hr. […] Labeling specificity, as measured by the fold reduction in nonspecific labeling of WT cells, was calculated by number of tracks measured in WT cells for Examples 1-28 compared to the number of tracks in WT cells for PA-JF549, expressed as the ratio with PA-JF549 in the numerator.

[3] = Table 4b, Example 19 with 642 nm light

Row | Compound | Specificity Factor [1] | Fold reduction in nonspecific labeling ([2]; Table 4a) | Fold reduction in nonspecific labeling [2, 3]
1 | COC[C@H]1CCN1c1ccc2c(c1)Oc1cc(N3CC[C@@H]3COC)ccc1C21C(=[N+]=[N-])C(=O)c2ccc(C(=O)NCCOCCOCCCCCCCl)cc21 [Example 3, N-(2-(2-((6-chlorohexyl)oxy)ethoxy)ethyl)-2-diazo-3′,6′-bis((R)-2-(methoxymethyl)azetidin-1-yl)-3-oxo-2,3-dihydrospiro[indene-1,9′-xanthene]-6-carboxamide] | 2.07 | 1-5 | 1-5
2 | CN(C)C(=O)C1CN(c2ccc3c(c2)Oc2cc(N4CC(C(=O)N(C)C)C4)ccc2C32C(=[N+]=[N-])C(=O)c3ccc(C(=O)NCCOCCOCCCCCCCl)cc32)C1 [Example 4, 1,1′-(6-((2-(2-((6-chlorohexyl)oxy)ethoxy)ethyl)carbamoyl)-2-diazo-3-oxo-2,3-dihydrospiro[indene-1,9′-xanthene]-3′,6′-diyl)bis(N,N-dimethylazetidine-3-carboxamide)] | 23.8 | >10 | >10
3 | CNC(=O)C1CN(c2ccc3c(c2)Oc2cc(N4CC(C(=O)NC)C4)ccc2C32C(=[N+]=[N-])C(=O)c3ccc(C(=O)NCCOCCOCCCCCCCl)cc32)C1 [Example 12, 1,1′-(6-((2-(2-((6-chlorohexyl)oxy)ethoxy)ethyl)carbamoyl)-2-diazo-3-oxo-2,3-dihydrospiro[indene-1,9′-xanthene]-3′,6′-diyl)bis(N-methylazetidine-3-carboxamide)] |  | >10 | >10
4 | CN(C)C1CN(c2ccc3c(c2)Oc2cc(N4CC(N(C)C)C4)ccc2C32C(=[N+]=[N-])C(=O)c3ccc(C(=O)NCCOCCOCCCCCCCl)cc32)C1 [Example 13, N-(2-(2-((6-chlorohexyl)oxy)ethoxy)ethyl)-2-diazo-3′,6′-bis(3-(dimethylamino)azetidin-1-yl)-3-oxo-2,3-dihydrospiro[indene-1,9′-xanthene]-6-carboxamide] |  | 5-10 | 5-10
5 | CN(C)C(=O)[C@@H]1CCN1c1ccc2c(c1)Oc1cc(N3CC[C@H]3C(=O)N(C)C)ccc1C21C(=[N+]=[N-])C(=O)c2ccc(C(=O)NCCOCCOCCCCCCCl)cc21 [Example 14, (2S,2′S)-1,1′-(6-((2-(2-((6-chlorohexyl)oxy)ethoxy)ethyl)carbamoyl)-2-diazo-3-oxo-2,3-dihydrospiro[indene-1,9′-xanthene]-3′,6′-diyl)bis(N,N-dimethylazetidine-2-carboxamide)] |  | >10 | >10
6 | [N-]=[N+]=C1C(=O)c2ccc(C(=O)NCCOCCOCCCCCCCl)cc2C12c1ccc(N3CC[C@@H]3CO)cc1Oc1cc(N3CC[C@@H]3CO)ccc12 [Example 15, N-(2-(2-((6-chlorohexyl)oxy)ethoxy)ethyl)-2-diazo-3′,6′-bis((R)-2-(hydroxymethyl)azetidin-1-yl)-3-oxo-2,3-dihydrospiro[indene-1,9′-xanthene]-6-carboxamide] |  | 5-10 | 5-10
7 | CN(C)C(=O)[C@H]1CCN(c2ccc3c(c2)Oc2cc(N4CC[C@H](C(=O)N(C)C)C4)ccc2C32C(=[N+]=[N-])C(=O)c3ccc(C(=O)NCCOCCOCCCCCCCl)cc32)C1 [Example 16, (3S,3′S)-1,1′-(6-((2-(2-((6-chlorohexyl)oxy)ethoxy)ethyl)carbamoyl)-2-diazo-3-oxo-2,3-dihydrospiro[indene-1,9′-xanthene]-3′,6′-diyl)bis(N,N-dimethylpyrrolidine-3-carboxamide)] |  | 5-10 | 5-10
8 | [N-]=[N+]=C1C(=O)c2ccc(C(=O)NCCOCCOCCCCCCCl)cc2C12c1ccc(N3C4COCC3C4)cc1Oc1cc(N3C4COCC3C4)ccc12 (stereo not shown) [Example 17, 3′,6′-di(3-oxa-6-azabicyclo[3.1.1]heptan-6-yl)-N-(2-(2-((6-chlorohexyl)oxy)ethoxy)ethyl)-2-diazo-3-oxo-2,3-dihydrospiro[indene-1,9′-xanthene]-6-carboxamide] |  | 1-5 | 1-5
9 | CN1CC2CC(C1)N2c1ccc2c(c1)Oc1cc(N3C4CC3CN(C)C4)ccc1C21C(=[N+]=[N-])C(=O)c2ccc(C(=O)NCCOCCOCCCCCCCl)cc21 (stereo not shown) [Example 18, N-(2-(2-((6-chlorohexyl)oxy)ethoxy)ethyl)-2-diazo-3′,6′-bis(3-methyl-3,6-diazabicyclo[3.1.1]heptan-6-yl)-3-oxo-2,3-dihydrospiro[indene-1,9′-xanthene]-6-carboxamide] |  | >10 | >10
10 | CN(C)C(=O)C1CN(c2ccc3c(c2)[Si](C)(C)c2cc(N4CC(C(=O)N(C)C)C4)ccc2C32C(=[N+]=[N-])C(=O)c3ccc(C(=O)NCCOCCOCCCCCCCl)cc32)C1 [Example 19, 1,1′-(6′-((2-(2-((6-chlorohexyl)oxy)ethoxy)ethyl)carbamoyl)-2′-diazo-5,5-dimethyl-3′-oxo-2′,3′-dihydro-5H-spiro[dibenzo[b,e]siline-10,1′-indene]-3,7-diyl)bis(N,N-dimethylazetidine-3-carboxamide)] |  |  | >10
11 | O=C1OC2(c3ccc(N4CCC4)cc3Oc3cc(N4CCC4)ccc32)c2cc(NCCOCCOCCCCCCCl)ccc21 [Example 21, 3′,6′-di(azetidin-1-yl)-6-((2-(2-((6-chlorohexyl)oxy)ethoxy)ethyl)amino)-3H-spiro[isobenzofuran-1,9′-xanthen]-3-one] |  |  | 5-10
12 | [N-]=[N+]=C1C(=O)c2ccc(NC(=O)CCOCCOCCCCCCCl)cc2C12c1ccc(N3CCC3)cc1Oc1cc(N3CCC3)ccc12 [Example 22, 3-(2-((6-chlorohexyl)oxy)ethoxy)-N-(3′,6′-di(azetidin-1-yl)-2-diazo-3-oxo-2,3-dihydrospiro[indene-1,9′-xanthen]-6-yl)propanamide] |  |  | 5-10
13 | [N-]=[N+]=C1C(=O)c2ccc(CCCCOCCOCCCCCCCl)cc2C12c1ccc(N3CCC3)cc1Oc1cc(N3CCC3)ccc12 [Example 24, 3′,6′-di(azetidin-1-yl)-6-(4-(2-((6-chlorohexyl)oxy)ethoxy)butyl)-2-diazospiro[indene-1,9′-xanthen]-3(2H)-one] |  |  | 1-5
14 | [N-]=[N+]=C1C(=O)c2ccc(OCCCOCCOCCCCCCCl)cc2C12c1ccc(N3CCC3)cc1Oc1cc(N3CCC3)ccc12 [Example 25, 3′,6′-di(azetidin-1-yl)-6-(3-(2-((6-chlorohexyl)oxy)ethoxy)propoxy)-2-diazospiro[indene-1,9′-xanthen]-3(2H)-one] |  |  | <1
15 | CN(CCOCCOCCCCCCCl)Cc1ccc2c(c1)C1(C(=[N+]=[N-])C2=O)c2ccc(N3CCC3)cc2Oc2cc(N3CCC3)ccc21 [Example 26, 3′,6′-di(azetidin-1-yl)-6-(((2-(2-((6-chlorohexyl)oxy)ethoxy)ethyl)(methyl)amino)methyl)-2-diazospiro[indene-1,9′-xanthen]-3(2H)-one] |  |  | <1
16 | [N-]=[N+]=C1C(=O)c2ccc(COCCOCCOCCCCCCCl)cc2C12c1ccc(N3CCC3)cc1Oc1cc(N3CCC3)ccc12 [Example 27, 3′,6′-di(azetidin-1-yl)-6-((2-(2-((6-chlorohexyl)oxy)ethoxy)ethoxy)methyl)-2-diazospiro[indene-1,9′-xanthen]-3(2H)-one] |  |  | <1
17 | COC(=O)C1CN(c2ccc3c(c2)Oc2cc(N4CC(C(=O)OC)C4)ccc2C32C(=[N+]=[N-])C(=O)c3ccc(C(=O)NCCOCCOCCCCCCCl)cc32)C1 [Reference Example 1, dimethyl 1,1′-(6-((2-(2-((6-chlorohexyl)oxy)ethoxy)ethyl)carbamoyl)-2-diazo-3-oxo-2,3-dihydrospiro[indene-1,9′-xanthene]-3′,6′-diyl)bis(azetidine-3-carboxylate)] | 2.66 | >10 | >10
18 | [N-]=[N+]=C1C(=O)c2ccc(C(=O)NCCOCCOCCCCCCCl)cc2C12c1ccc(N3CC(C(=O)O)C3)cc1Oc1cc(N3CC(C(=O)O)C3)ccc12 [Reference Example 2, 1,1′-(6-((2-(2-((6-chlorohexyl)oxy)ethoxy)ethyl)carbamoyl)-2-diazo-3-oxo-2,3-dihydrospiro[indene-1,9′-xanthene]-3′,6′-diyl)bis(azetidine-3-carboxylic acid)] | <1 | >10 | >10
19 | (E)-3′,6′-di(azetidin-1-yl)-6-(4-(2-((6-chlorohexyl)oxy)ethoxy)but-1-en-1-yl)-2-diazospiro[indene-1,9′-xanthen]-3(2H)-one and (Z)-3′,6′-di(azetidin-1-yl)-6-(4-(2-((6-chlorohexyl)oxy)ethoxy)but-1-en-1-yl)-2-diazospiro[indene-1,9′-xanthen]-3(2H)-one [Example 23] |  |  | >10

From patent US20260234403A1, “PHOTOACTIVE FLUORESCENT COMPOUNDS AND USE THEREOF FOR LABELING OF PROTEINS” (EIKON THERAPEUTICS, INC., priority 2023, published 2026)
